Experimental data taken from US20080242713A1, “Novel 5-cyano-prostacyclin derivatives as agents for the treatment of autoimmune diseases” (priority 2007, published 2008).

Key:
EP4 receptor [1] = molecular target: T1, EP4 receptor (Homo sapiens, UniProt P35408); experiment: cAMP accumulation assay in cells expressing EP4 (Biological Example 2, tetrazole derivatives); assay type: cell-based; conditions: cAMP luminescence, mean of triplicate
Method: (§1) Commercial cAMP accumulation assays are typically competitive immunoassays in which free cAMP from cell lysates competes for antibody binding against a “labeled” cAMP molecule. This positive signal is generated in direct proportion to the amount of free cAMP. In our assays cAMP standards and samples are pipetted into the wells of a microplate. An antibody specific cAMP is added to the wells. A substrate is added to the wells and luminescence develops in proportion to the amount of cAMP which accumulated during treatment of cells which express the EP4 receptor with standards and samples. The intensity of the luminescence is measured in a luminometer.
Results shown are the mean of triplicate determinations.

EP4 receptor [2] = molecular target: T1, EP4 receptor; experiment: cAMP accumulation assay in cells expressing EP4 (Biological Example 1, diol derivative); assay type: cell-based; conditions: for RLU - background: cAMP luminescence, mean of triplicate
Method: as §1
The response of the EP4 expressing cells treated with the diol derivative is compared to Nileprost. Results shown are the mean of triplicate determinations.

T1 sequence (P35408 whole entry): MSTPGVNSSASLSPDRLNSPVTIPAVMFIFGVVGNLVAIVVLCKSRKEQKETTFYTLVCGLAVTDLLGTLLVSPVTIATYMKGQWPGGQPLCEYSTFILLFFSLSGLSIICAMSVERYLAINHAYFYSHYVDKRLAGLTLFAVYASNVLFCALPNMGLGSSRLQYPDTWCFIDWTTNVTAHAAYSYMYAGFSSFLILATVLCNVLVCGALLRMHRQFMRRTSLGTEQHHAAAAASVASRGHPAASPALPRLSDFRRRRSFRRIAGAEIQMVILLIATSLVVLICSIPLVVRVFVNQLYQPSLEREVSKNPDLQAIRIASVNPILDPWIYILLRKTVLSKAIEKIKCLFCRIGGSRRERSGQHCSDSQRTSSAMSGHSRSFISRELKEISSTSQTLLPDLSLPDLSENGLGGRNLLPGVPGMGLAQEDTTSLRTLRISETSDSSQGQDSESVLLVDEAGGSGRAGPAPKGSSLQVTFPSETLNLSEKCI

RLU - background (EP4 receptor [2]; compound 0.010 nM)	RLU - background (EP4 receptor [2]; compound 0.152 nM)	RLU - background (EP4 receptor [2]; compound 0.457 nM)	RLU - background (EP4 receptor [2]; compound 1.372 nM)	RLU - background (EP4 receptor [2]; compound 4.115 nM)	RLU - background (EP4 receptor [2]; compound 12.346 nM)	RLU - background (EP4 receptor [2]; compound 37.037 nM)	RLU - background (EP4 receptor [2]; compound 111.111 nM)	SMILES	RLU - background (EP4 receptor [1]; compound 0.005 nM)	RLU - background (EP4 receptor [1]; compound 0.052 nM)	RLU - background (EP4 receptor [1]; compound 0.157 nM)	RLU - background (EP4 receptor [1]; compound 0.472 nM)	RLU - background (EP4 receptor [1]; compound 1.417 nM)	RLU - background (EP4 receptor [1]; compound 4.252 nM)	RLU - background (EP4 receptor [1]; compound 12.757 nM)	RLU - background (EP4 receptor [1]; compound 38.272 nM)	RLU - background (EP4 receptor [1]; compound 114.815 nM)	RLU - background (EP4 receptor [1]; compound 344.444 nM)	RLU - background (EP4 receptor [1]; compound 1033.333 nM)	RLU - background (EP4 receptor [1]; compound 3100.000 nM)	also measured
								CCCCC(C)[C@H](O)/C=C/[C@@H]1[C@H]2C/C(=C(\C#N)CCCc3nnn[nH]3)O[C@H]2C[C@H]1O (stereo partly drawn) [Cpd. #1, α-[(3aR,4R,5R,6aS)-hexahydro-5-hydroxy-4-[(1E,3S)-3-hydroxy-4-methyl-1-octenyl]-2H-cyclopenta[b]furan-2-ylidene]-1H-tetrazole-5-2E-pentanenitrile]	53600.00 RLU	17642.67 RLU	22533.33 RLU	27365.33 RLU	157357.33 RLU	373856.00 RLU	435810.67 RLU	484954.67 RLU	514858.67 RLU	606992.00 RLU	584826.67 RLU	559813.33 RLU	
								CCCCC(C)[C@@H](O)/C=C/[C@@H]1[C@H]2C/C(=C(/C#N)CCCc3nnn[nH]3)O[C@H]2C[C@H]1O (stereo partly drawn) [Cpd. #3, α-[(3a R,4R,5R,6aS)-hexahydro-5-hydroxy-4-[(1E,3R)-3-hydroxy-4-methyl-1-octenyl]-2H-cyclopenta[b]furan-2-ylidene]-1H-tetrazole-5-2Z-pentanenitrile]	76373.33 RLU	79997.33 RLU	83616.00 RLU	118397.33 RLU	273778.67 RLU	374920.00 RLU	522154.67 RLU	697208.00 RLU	773429.33 RLU	813525.33 RLU	710053.33 RLU	714320.00 RLU	
								CCCCC[C@H](O)/C=C/[C@@H]1[C@H]2CC(=C(C#N)CCCc3nnn[nH]3)O[C@H]2C[C@H]1O [Cpd. #4, α-[(3aR,4R,5R,6aS)-hexahydro-5-hydroxy-4-[(1E,3S)-3-hydroxy-1-octenyl]-2H-cyclopenta[b]furan-2-ylidene]-1H-tetrazole-5-pentanenitrile]	146597.33 RLU	83650.67 RLU	40557.33 RLU	46426.67 RLU	82445.33 RLU	158224.00 RLU	429672.00 RLU	554328.00 RLU	813194.67 RLU	909808.00 RLU	808477.33 RLU	820866.67 RLU	
0 RLU	0 RLU	0 RLU	152432 RLU	532234 RLU	912060 RLU	1019082 RLU	1150386 RLU	CCCCC(C)[C@H](O)/C=C/[C@@H]1[C@H]2C/C(=C(\C#N)CCCC(O)CO)O[C@H]2C[C@H]1O (stereo partly drawn) [Cpd. #5, 2-[(3aR,4R,5R,6aS)-hexahydro-5-hydroxy-4-[(1E,3S)-3-hydroxy-4-methyl-1-octenyl]-2H-cyclopenta[b]furan-2-ylidene]-6,7-dihydroxy-, (2E)-heptanenitrile]													RLU - background (EP4 receptor [2]; compound 333.333 nM): 1291820 RLU; RLU - background (EP4 receptor [2]; compound 1000.000 nM): 1260692 RLU; RLU - background (EP4 receptor [2]; compound 3000.000 nM): 1201852 RLU; RLU - background (EP4 receptor [2]; compound 9000.000 nM): 1206470 RLU; EP4 agonist activity in the cAMP accumulation assay (EP4 receptor [2]; result in words): dose-responsively showed EP4 agonist activity
0 RLU	850786 RLU	1291900 RLU	1521826 RLU	1626762 RLU	1589698 RLU	1312998 RLU	1258626 RLU	CCCCC(C)C(O)C=CC1C(O)CC2OC(=C(C#N)CCCC(=O)O)CC21 (stereo not shown) [Nileprost, 5-cyano-16-methylprostacyclin, reference compound]													RLU - background (EP4 receptor [2]; compound 333.333 nM): 1648306 RLU; RLU - background (EP4 receptor [2]; compound 1000.000 nM): 1635488 RLU; RLU - background (EP4 receptor [2]; compound 3000.000 nM): 1625442 RLU; RLU - background (EP4 receptor [2]; compound 9000.000 nM): 1599712 RLU
